Results: patent US8507538B2, “Selective heterocyclic sphingosine 1 phosphate receptor modulators” (Receptos, Inc., priority 2009, dated 2013)
Like-named read-outs stand apart in the source and are kept apart here.

Columns and labels:
S1P1/EDG1 = S1P1/EDG1 (Homo sapiens, UniProt P21453); experiment: S1P1 CRE-bla CHOK1 reporter assay (inhibition of Forskolin induced cAMP); type: cell-based
In short: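 Stable CRE-bla CHO-K1 clone expressing human S1P1, serum-starved (0.5% stripped serum) 18 h, then treated with compound (10-point curve) plus 2 μM forskolin for 4 h at 37 °C. β-lactamase FRET ratio (458/522 nm) read after 2 h substrate loading; EC50 for inhibition of forskolin-induced cAMP by non-linear regression.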

S1P2 = target: T1, S1P2 (Homo sapiens, UniProt O95136); experiment: Specificity over other S1P receptors: S1P2 CRE-bla CHOK1; type: cell-based; details: without Forskolin; read-out: S1P2 agonist value (EC50)
T1 construct: expressed in transfected cells; host or cells: CRE-bla CHOK1
T1 sequence (O95136 whole entry, species assumed): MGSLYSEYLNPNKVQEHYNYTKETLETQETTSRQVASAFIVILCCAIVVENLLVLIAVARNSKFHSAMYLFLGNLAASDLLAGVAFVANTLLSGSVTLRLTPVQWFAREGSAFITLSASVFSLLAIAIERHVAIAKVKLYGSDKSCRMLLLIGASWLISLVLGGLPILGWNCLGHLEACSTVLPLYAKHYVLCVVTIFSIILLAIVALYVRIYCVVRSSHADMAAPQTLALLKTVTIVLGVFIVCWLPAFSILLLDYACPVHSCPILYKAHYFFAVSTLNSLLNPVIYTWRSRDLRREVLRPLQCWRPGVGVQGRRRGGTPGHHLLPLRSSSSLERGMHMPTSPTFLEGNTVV
Procedure: (§1) Cells were seeded into 384-well black wall/clear bottom plates at 10^4 cells/well/19.5 μl assay media (DMEM-phenol free, 0.5% charcoal/dextran stripped serum, 2 mM glutamine, 0.1 mM NEAA, 1 mM Na-Pyruvate, 25 mM Hepes) and incubated for 18 hrs at 37° C. in 5% CO2. Dose response curves (10-point) were generated in 10 mM Hepes, 0.1% Pluronic F127, in the presence of Forskolin. Cells were treated with 0.5 μl compound in the presence of 2 μM Forskolin for 4 hrs at 37° C. The FRET-based β-lactamase fluorescent substrate (LiveBLAzer™ FRET B/G Loading Kit CC4-AM; Invitrogen) was prepared according to manufacturer's directions, and incubated with cells for 2 hrs at room temperature. Plates were read at Ex:410/Em:458 and Ex:410/Em:522, and the response ratio determined. Data was analyzed by non-linear regression to determine the EC50 for inhibition of Forskolin induced cAMP.
(§2) To assess compound specificity on other S1P receptors the following cell lines were used: S1P2 CRE-bla CHOK1, S1P3-Gα15 NFAT-bla HEK293T (Invitrogen), S1P4-bla TANGO U2OS (Invitrogen), S1P5-bla TANGO U2OS (Invitrogen). The same assay set up for S1P1 was used but without Forskolin. S1P4 and S1P5 assays were performed in FreeStyle Expression medium (Invitrogen). S1P5 cells were incubated for 48 hrs in prior to treatment with compound.

S1P3 = target: T2, S1P3 (Homo sapiens, UniProt Q99500); experiment: Specificity over other S1P receptors: S1P3-Gα15 NFAT-bla HEK293T; type: cell-based; details: without Forskolin; read-out: S1P3 agonist value (EC50)
T2 construct: host or cells: NFAT-bla HEK293T co-expressing Gα15
T2 sequence (Q99500 whole entry): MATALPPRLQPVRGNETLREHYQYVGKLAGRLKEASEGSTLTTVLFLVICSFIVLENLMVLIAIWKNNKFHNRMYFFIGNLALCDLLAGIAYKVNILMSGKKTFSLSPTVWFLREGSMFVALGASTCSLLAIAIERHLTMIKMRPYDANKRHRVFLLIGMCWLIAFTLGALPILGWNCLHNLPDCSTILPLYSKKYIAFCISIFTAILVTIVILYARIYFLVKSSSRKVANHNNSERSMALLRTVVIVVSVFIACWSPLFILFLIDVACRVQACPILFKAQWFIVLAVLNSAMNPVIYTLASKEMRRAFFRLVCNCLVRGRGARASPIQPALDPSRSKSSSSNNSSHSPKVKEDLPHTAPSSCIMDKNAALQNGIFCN
Procedure: as §1, §2

S1P4 = target: T3, S1P4 (Homo sapiens, UniProt O95977); experiment: Specificity over other S1P receptors: S1P4-bla TANGO U2OS; type: cell-based; details: without Forskolin, FreeStyle Expression medium; read-out: S1P4 agonist value (EC50)
T3 construct: Tango fusion (own knowledge: TEV protease site + GAL4-VP16 transcription factor fused to the receptor's C-terminus); host or cells: Tango bla U2OS
T3 sequence (O95977 1-384): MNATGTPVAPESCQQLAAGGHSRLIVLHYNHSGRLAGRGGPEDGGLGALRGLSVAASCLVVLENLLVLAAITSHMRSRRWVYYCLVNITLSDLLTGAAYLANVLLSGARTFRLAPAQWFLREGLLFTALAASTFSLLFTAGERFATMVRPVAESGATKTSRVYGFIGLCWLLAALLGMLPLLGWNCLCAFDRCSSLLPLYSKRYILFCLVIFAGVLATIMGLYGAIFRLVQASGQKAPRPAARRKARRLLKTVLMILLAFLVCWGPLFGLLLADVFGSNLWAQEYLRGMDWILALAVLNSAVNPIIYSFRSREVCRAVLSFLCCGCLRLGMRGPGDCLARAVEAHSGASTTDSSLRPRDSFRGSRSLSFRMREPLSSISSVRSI
Procedure: as §1, §2

S1P5 = target: T4, S1P5 (Homo sapiens, UniProt Q9H228); experiment: Specificity over other S1P receptors: S1P5-bla TANGO U2OS; type: cell-based; details: without Forskolin, FreeStyle Expression medium; read-out: S1P5 agonist value (EC50)
T4 construct: Tango fusion (own knowledge: TEV protease site + GAL4-VP16 transcription factor fused to the receptor's C-terminus); host or cells: Tango bla U2OS
T4 sequence (Q9H228 whole entry, the tested form may be a part): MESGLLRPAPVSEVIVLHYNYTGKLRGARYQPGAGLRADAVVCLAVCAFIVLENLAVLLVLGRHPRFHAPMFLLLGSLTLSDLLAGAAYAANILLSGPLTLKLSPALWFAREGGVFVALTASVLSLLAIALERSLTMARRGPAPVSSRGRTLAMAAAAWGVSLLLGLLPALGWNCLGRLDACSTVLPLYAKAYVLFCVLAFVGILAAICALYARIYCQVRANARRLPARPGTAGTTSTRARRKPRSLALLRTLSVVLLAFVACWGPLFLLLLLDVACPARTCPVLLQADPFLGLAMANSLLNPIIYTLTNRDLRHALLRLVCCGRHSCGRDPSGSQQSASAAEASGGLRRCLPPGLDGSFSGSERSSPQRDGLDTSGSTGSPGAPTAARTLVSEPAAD
Procedure: as §1, §2

[1] = tested on: CD4 or CD8 positive T cells; experiment: Lymphopenia in rats; type: in vivo; details: rat, 24 h after a 0.2 mg/kg single dose; for inhibition in vivo at 0.2 mg/kg: CD8 positive, po
Procedure: In rats: Female rats (Simonsen Laboratories, Gilroy Calif.) were housed in an ALAAC accredited facility and the research was approved by the facilities Institutional Animal Care and Use Committee (IACUC). The animals were acclimated to the laboratory for at least 5 days prior to initiation of experiments. Rats (n=3/compound/time-point) were dosed by oral gavage with 1 mg/kg compound formulated in a vehicle consisting of 5% DMSO/5% Tween 20 and 90% 0.1N HCL. Control rats were dosed PO with the vehicle. Whole blood was collected from isoflurane anesthetized rats via the retro-orbital sinus and terminal samples were collected by cardiac puncture into EDTA. Whole blood was incubated with mouse anti-rat CD32 (BD #550271), PE-mouse anti-rat CD45R/B220 (BD #554881), PECy5-mouse anti-rat CD4 (BD #554839), and APC-mouse anti-rat CD8a (eBioscience #17-0084) for 30 minutes on ice. Red blood cells were lysed using BD Pharm. Lyse Lysing buffer (#555899) and white blood cells were analyzed with a BD FACSArray. Lymphopenia was expressed as the % of white blood cells that were CD4 or CD8 positive T cells. The overall lymphopenia response over 24 h was estimated by calculating the area under the effect curve (AUEC) using the linear trapezoidal rule. In some experiments, total lymphocyte counts were determined using a standard impediance based veterinary hematology analyzer (IDEXX Preclinical Research Services, Sacramento, Calif.).
The percentage of lymphopenia at 24 h after a 0.2 mg/kg single dose regiment is reported. […] N/A is not available.

[2] = tested on: CD4 or CD8 positive T cells; experiment: Lymphopenia in rats; type: in vivo; details: rat, at 24 h after a 3-5 day dosing regimen
[3] = Table 3, read-out: S1P1 agonist value (EC50)
[4] = agonist activity range, Table 2, read-out: S1P1 ACTIVITY

S1P1/EDG1, sequence (P21453 whole entry): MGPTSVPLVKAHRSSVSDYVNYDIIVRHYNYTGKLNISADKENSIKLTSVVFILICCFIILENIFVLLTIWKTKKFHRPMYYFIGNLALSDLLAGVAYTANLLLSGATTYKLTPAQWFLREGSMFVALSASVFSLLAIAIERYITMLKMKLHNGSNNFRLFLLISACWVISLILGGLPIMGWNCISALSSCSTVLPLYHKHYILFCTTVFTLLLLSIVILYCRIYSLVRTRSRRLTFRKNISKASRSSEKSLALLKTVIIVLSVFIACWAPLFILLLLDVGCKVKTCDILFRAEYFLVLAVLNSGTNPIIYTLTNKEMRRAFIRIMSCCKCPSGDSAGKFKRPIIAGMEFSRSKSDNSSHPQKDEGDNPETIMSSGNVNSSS

Molecule | EC50 (S1P1/EDG1; [3]) [nM] | EC50 (S1P1/EDG1; [4]) [nM] | EC50 (S1P5) [nM] | % Lymphopenia after 24 h (0.2 mg/kg) [1] [%] | other results
CC(C)Oc1ccc(-c2nnc(-c3cccc4c3CC[C@@H]4NS(N)(=O)=O)s2)cc1C#N [Compound 47, (S)-N-(4-(5-(3-cyano-4-isopropoxyphenyl)-1,3,4-thiadiazol-2-yl)-2,3-dihydro-1H-inden-1-yl)sulfamide] | 0.03 | < 0.05 | 22 | – | EC50 (S1P2): > 10000 nM; EC50 (S1P3): > 10000 nM; EC50 (S1P4): > 10000 nM; inhibition in vivo at 0.2 mg/kg [1]: 17%
CC(C)Oc1ccc(-c2ncc(-c3cccc4c3CC[C@H]4NC(=O)N3CCOCC3)s2)cc1C#N [Compound 186, (R)-N-(4-(2-(3-cyano-4-isopropoxyphenyl)thiazol-5-yl)-2,3-dihydro-1H-inden-1-yl)morpholine-4-carboxamide] | 0.41 | – | 126 | – | EC50 (S1P3): > 10000 nM; inhibition in vivo at 0.2 mg/kg [1]: 25%; ED50 ([2]; CD8 positive, read-out: ED50, estimated dose needed to produce 50% lymphopenia): 0.2 mg/kg
CC(C)Oc1ccc(-c2cnc(-c3cccc4c3CCC4O)s2)cc1C#N (stereo not drawn) [Compound 222, 5-(2-(1-hydroxy-2,3-dihydro-1H-inden-4-yl)thiazol-5-yl)-2-isopropoxy-benzonitrile] | – | > 5 | – | – | –
CC(C)Oc1ccc(-c2ccc(-c3cccc4c3CCC4O)s2)cc1C#N (stereo not drawn) [Compound 223, 5-(5-(1-hydroxy-2,3-dihydro-1H-inden-4-yl)thiophen-2-yl)-2-isopropoxybenzonitrile] | – | 0.5 to 5 | – | – | –
CC(C)Oc1ccc(-c2ccc(-c3cccc4c3CCC4NCCO)s2)cc1C#N (stereo not drawn) [Compound 224, 5-(5-(1-(2-hydroxyethylamino)-2,3-dihydro-1H-inden-4-yl)thiophen-2-yl)-2-isopropoxybenzonitrile] | – | > 5 | – | – | –
CC(C)Oc1ccc(-c2ccc(-c3cccc4c3CC[C@H]4N)s2)cc1C#N [Compound 225, (R)-5-(5-(1-amino-2,3-dihydro-1H-inden-4-yl)thiophen-2-yl)-2-isopropoxybenzonitrile] | – | > 5 | – | – | –
CC(C)Oc1ccc(-c2cc(-c3cccc4c3CCC4O)cs2)cc1C#N (stereo not drawn) [Compound 226, 5-(4-(1-hydroxy-2,3-dihydro-1H-inden-4-yl)thiophen-2-yl)-2-isopropoxybenzonitrile] | – | 0.5 to 5 | – | – | –
CC(C)Oc1ccc(-c2csc(-c3cccc4c3CCC4O)c2)cc1C#N (stereo not drawn) [Compound 227, 5-(5-(1-hydroxy-2,3-dihydro-1H-inden-4-yl)thiophen-3-yl)-2-isopropoxybenzonitrile] | – | > 5 | – | – | –
(R)-2-(N-(4-(5-(3-cyano-4-isopropoxyphenyl)-1,3,4-thiadiazol-2-yl)-2,3-dihydro-1H-inden-1-yl)sulfamoyl)-N,N-dimethylacetamide [Compound 43] | 0.07 | – | 444 | 40 | –
(R)-N-(4-(2-(3-cyano-4-isopropoxyphenyl)thiazol-5-yl)-2,3-dihydro-1H-inden-1-yl)pyrrolidine-1-carboxamide [Compound 172] | – | – | – | 22 | ED50, estimated dose needed to produce 50% lymphopenia [2]: 0.20 mg/kg
(R)-N-(4-(2-(3-cyano-4-isopropoxyphenyl)thiazol-5-yl)-2,3-dihydro-1H-inden-1-yl)sulfamide [Compound 166] | – | – | – | 47 | ED50, estimated dose needed to produce 50% lymphopenia [2]: 0.07 mg/kg
(R)-N-(4-(5-(3-cyano-4-isopropoxyphenyl)-1,3,4-thiadiazol-2-yl)-2,3-dihydro-1H-inden-1-yl)-2-hydroxyethanesulfonamide [Compound 46] | 0.25 | – | 194 | 39 | EC50 (S1P4): 2170 nM
(R)-N-((R)-4-(5-(3-cyano-4-isopropoxyphenyl)-1,3,4-thiadiazol-2-yl)-2,3-dihydro-1H-inden-1-yl)-3-(dimethylamino)pyrrolidine-1-carboxamide [Compound 56] | – | – | – | 52 | –
